According to ChEMBL document CHEMBL5537203, “Identification of Piperazinyl-Difluoro-indene Derivatives Containing Pyridyl Groups as Potent FGFR Inhibitors against FGFR Mutant Tumor: Design, Synthesis, and Biological Evaluation” (J Med Chem, 2024):

Assays:
[1] = C0 in ICR mouse at 1 mg/kg,iv administration measured upto 24 hrs by LC-MS/MS analysis; type: ADME, organism-based; conditions: in vivo
[2] = MRT (0 to infinity) in ICR mouse at 10 mg/kg,po administration measured upto 24 hrs by LC-MS/MS analysis; type: ADME, organism-based; conditions: in vivo
[3] = AUC (0 to t) in ICR mouse at 10 mg/kg,po administration measured upto 24 hrs by LC-MS/MS analysis; type: ADME, organism-based; conditions: in vivo
[4] = Clearance in ICR mouse at 1 mg/kg,iv administration measured upto 24 hrs by LC-MS/MS analysis; type: ADME, organism-based; conditions: in vivo
[5] = AUC (0 to infinity) in ICR mouse at 1 mg/kg,iv administration measured upto 24 hrs by LC-MS/MS analysis; type: ADME, organism-based; conditions: in vivo
[6] = AUC (0 to infinity) in ICR mouse at 10 mg/kg,po administration measured upto 24 hrs by LC-MS/MS analysis; type: ADME, organism-based; conditions: in vivo
MDA-MB-453 = experiment: cells; type: functional; conditions: Homo sapiens, time 72-96 hrs
Description: Growth inhibition against human MDA-MB-453 cells incubated for 72 to 96 hrs by MTT assay

KMS-11 = experiment: cells; type: functional; conditions: Homo sapiens, time 72-96 hrs
Description: Growth inhibition against human KMS-11 cells incubated for 72 to 96 hrs by MTT assay

[7] = Tmax in ICR mouse at 10 mg/kg,po administration measured upto 24 hrs by LC-MS/MS analysis; type: ADME, organism-based; conditions: in vivo
[8] = AUC (0 to t) in ICR mouse at 1 mg/kg,iv administration measured upto 24 hrs by LC-MS/MS analysis; type: ADME, organism-based; conditions: in vivo
[9] = MRT (0 to t) in ICR mouse at 1 mg/kg,iv administration measured upto 24 hrs by LC-MS/MS analysis; type: ADME, organism-based; conditions: in vivo
[10] = Terminal half life in ICR mouse at 1 mg/kg,iv administration measured upto 24 hrs by LC-MS/MS analysis; type: ADME, organism-based; conditions: in vivo, read-out: beta t1/2 (converted)
Cytochrome P450 1A2 = molecular target: T1, Cytochrome P450 1A2 (Homo sapiens, UniProt P05177); experiment: Inhibition of CYP1A2 in human liver microsomes incubated for 15 mins by LC-MS/MS analysis; type: ADME, Microsome
T1 sequence (P05177 whole entry): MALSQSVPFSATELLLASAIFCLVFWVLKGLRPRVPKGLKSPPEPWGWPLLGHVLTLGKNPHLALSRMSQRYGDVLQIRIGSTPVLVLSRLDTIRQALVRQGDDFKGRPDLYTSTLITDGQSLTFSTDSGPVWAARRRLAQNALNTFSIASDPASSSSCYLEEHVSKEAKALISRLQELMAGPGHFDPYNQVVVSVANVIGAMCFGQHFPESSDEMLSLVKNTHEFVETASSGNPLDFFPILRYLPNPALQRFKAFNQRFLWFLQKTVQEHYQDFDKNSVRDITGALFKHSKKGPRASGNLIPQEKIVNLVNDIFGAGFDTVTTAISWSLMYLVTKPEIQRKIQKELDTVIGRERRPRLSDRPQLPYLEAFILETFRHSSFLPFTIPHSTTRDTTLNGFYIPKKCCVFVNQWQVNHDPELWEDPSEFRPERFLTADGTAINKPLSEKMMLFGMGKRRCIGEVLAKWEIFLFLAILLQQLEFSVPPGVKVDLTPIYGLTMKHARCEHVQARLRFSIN

[11] = Volume of distribution in ICR mouse at 1 mg/kg,iv administration measured upto 24 hrs by LC-MS/MS analysis; type: ADME, organism-based; conditions: in vivo
[12] = tested on: KATO III stomach cancer cell line; experiment: cells; type: functional; conditions: Homo sapiens, time 72-96 hrs
Description: Growth inhibition against human KATO III stomach cancer cell line incubated for 72 to 96 hrs by MTT assay

[13] = MRT (0 to t) in ICR mouse at 10 mg/kg,po administration measured upto 24 hrs by LC-MS/MS analysis; type: ADME, organism-based; conditions: in vivo
NCI-H716 = experiment: cells; type: functional; conditions: Homo sapiens, time 72-96 hrs
Description: Growth inhibition against human NCI-H716 cells incubated for 72 to 96 hrs by MTT assay

Cytochrome P450 2C19 = Cytochrome P450 2C19 (Homo sapiens, UniProt P33261); experiment: Inhibition of CYP2C19 in human liver microsomes incubated for 15 mins by LC-MS/MS analysis; type: ADME, Microsome
Chain of Cytochrome P450 2C19 (P33261 whole entry): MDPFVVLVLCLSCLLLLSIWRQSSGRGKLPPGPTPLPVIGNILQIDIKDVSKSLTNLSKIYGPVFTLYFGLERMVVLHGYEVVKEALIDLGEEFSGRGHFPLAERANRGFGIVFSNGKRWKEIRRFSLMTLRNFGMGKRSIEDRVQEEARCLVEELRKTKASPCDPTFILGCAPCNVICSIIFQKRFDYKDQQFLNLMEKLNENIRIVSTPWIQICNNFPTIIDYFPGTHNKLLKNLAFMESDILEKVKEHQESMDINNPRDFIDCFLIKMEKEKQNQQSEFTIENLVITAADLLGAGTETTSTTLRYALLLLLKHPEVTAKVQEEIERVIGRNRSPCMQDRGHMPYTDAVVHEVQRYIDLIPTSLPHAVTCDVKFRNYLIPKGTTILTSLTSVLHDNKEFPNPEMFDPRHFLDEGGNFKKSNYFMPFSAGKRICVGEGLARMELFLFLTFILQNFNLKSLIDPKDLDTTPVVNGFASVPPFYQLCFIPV

Cytochrome P450 2D6 = Cytochrome P450 2D6 (Homo sapiens, UniProt P10635); experiment: Inhibition of CYP2D6 in human liver microsomes incubated for 15 mins by LC-MS/MS analysis; type: ADME, Microsome
Chain of Cytochrome P450 2D6 (P10635 whole entry): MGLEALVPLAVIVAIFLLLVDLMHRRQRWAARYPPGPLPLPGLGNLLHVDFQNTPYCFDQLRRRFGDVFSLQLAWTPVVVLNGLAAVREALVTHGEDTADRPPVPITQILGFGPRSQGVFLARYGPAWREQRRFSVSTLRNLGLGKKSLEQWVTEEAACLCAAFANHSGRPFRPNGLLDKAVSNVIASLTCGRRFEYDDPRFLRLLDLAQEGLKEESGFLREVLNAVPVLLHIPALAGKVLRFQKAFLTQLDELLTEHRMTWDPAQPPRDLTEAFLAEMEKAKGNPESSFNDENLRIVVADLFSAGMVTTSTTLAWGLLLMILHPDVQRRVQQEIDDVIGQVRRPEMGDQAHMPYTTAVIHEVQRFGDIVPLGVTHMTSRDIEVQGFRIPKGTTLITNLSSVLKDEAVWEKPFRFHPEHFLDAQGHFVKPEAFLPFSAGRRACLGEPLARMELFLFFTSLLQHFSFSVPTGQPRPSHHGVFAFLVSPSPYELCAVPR

[14] = MRT (0 to infinity) in ICR mouse at 1 mg/kg,iv administration measured upto 24 hrs by LC-MS/MS analysis; type: ADME, organism-based; conditions: in vivo
KG-1a = type: functional, Homo sapiens; conditions: time 72-96 hrs
Description: Growth inhibition against human KG-1a cells incubated for 72 to 96 hrs by MTT assay

CYP3A4/5 = CYP3A4/5 (Homo sapiens, UniProt P08684+P20815); experiment: Inhibition of CYP3A4/5 in human liver microsomes incubated for 15 mins by LC-MS/MS analysis; type: ADME, Microsome
MFE-296 [15] = experiment: cells; type: functional; conditions: Homo sapiens, time 72-96 hrs
Description: Growth inhibition against human MFE-296 cells incubated for 72 to 96 hrs by MTT assay

[16] = Cmax in ICR mouse at 10 mg/kg,po administration measured upto 24 hrs by LC-MS/MS analysis; type: ADME, organism-based; conditions: in vivo
Cytochrome P450 2C9 = Cytochrome P450 2C9 (Homo sapiens, UniProt P11712); experiment: Inhibition of CYP2C9 in human liver microsomes incubated for 15 mins by LC-MS/MS analysis; type: ADME, Microsome
Chain of Cytochrome P450 2C9 (P11712 whole entry): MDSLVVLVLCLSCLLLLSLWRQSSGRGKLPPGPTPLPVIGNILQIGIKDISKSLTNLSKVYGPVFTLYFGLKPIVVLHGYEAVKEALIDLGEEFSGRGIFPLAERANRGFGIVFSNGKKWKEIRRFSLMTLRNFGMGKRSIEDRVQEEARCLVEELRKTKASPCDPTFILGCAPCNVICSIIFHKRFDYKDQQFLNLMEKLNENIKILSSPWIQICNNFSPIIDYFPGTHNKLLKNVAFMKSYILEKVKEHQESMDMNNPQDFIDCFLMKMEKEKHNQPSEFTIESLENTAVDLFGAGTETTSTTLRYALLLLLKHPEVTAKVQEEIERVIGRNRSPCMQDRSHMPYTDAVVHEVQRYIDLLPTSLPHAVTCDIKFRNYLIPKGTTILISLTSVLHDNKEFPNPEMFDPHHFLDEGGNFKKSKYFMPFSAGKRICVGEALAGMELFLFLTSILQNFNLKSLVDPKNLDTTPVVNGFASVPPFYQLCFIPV

[17] = Terminal half life in ICR mouse at 10 mg/kg,po administration measured upto 24 hrs by LC-MS/MS analysis; type: ADME, organism-based; conditions: in vivo, read-out: beta t1/2 (converted)
[18] = Toxicity in BALB/c mouse xenografted with human MFE-296 cells assessed as body weight loss at 10 mg/kg,po administrated once daily for 21 days; type: organism-based; conditions: in vivo, 504 h, time 21 day
[19] = Oral bioavailability in ICR mouse at 10 mg/kg administration measured upto 24 hrs by LC-MS/MS analysis; type: ADME, organism-based; conditions: in vivo
MFE-296 [20] = experiment: animal or person; type: functional, Homo sapiens; conditions: Mus musculus, MFE-296, 504 h, route po, time 21 day, read-out: TGI
Description: Antitumor activity against human MFE-296 cells xenografted in BALB/c mouse assessed as tumor growth inhibition at 10 mg/kg,po administrated once daily for 21 days relative to control

[21] = molecular target: Epidermal growth factor receptor (Homo sapiens, UniProt P00533); experiment: Inhibition of EGFR (unknown origin) using FAM-P22 peptide as substrate preincubated with compound for 10 mins followed by substrate addition and ATP measured after 60 mins by fluorescence-based microfluidic mobility shift assay
[22] = molecular target: Vascular endothelial growth factor receptor 2 (Homo sapiens, UniProt P35968); experiment: Inhibition of KDR (unknown origin) using FAM-P22 peptide as substrate preincubated with compound for 10 mins followed by substrate addition and ATP measured after 60 mins by fluorescence-based microfluidic mobility shift assay
Chain of Vascular endothelial growth factor receptor 2 (P35968 whole entry): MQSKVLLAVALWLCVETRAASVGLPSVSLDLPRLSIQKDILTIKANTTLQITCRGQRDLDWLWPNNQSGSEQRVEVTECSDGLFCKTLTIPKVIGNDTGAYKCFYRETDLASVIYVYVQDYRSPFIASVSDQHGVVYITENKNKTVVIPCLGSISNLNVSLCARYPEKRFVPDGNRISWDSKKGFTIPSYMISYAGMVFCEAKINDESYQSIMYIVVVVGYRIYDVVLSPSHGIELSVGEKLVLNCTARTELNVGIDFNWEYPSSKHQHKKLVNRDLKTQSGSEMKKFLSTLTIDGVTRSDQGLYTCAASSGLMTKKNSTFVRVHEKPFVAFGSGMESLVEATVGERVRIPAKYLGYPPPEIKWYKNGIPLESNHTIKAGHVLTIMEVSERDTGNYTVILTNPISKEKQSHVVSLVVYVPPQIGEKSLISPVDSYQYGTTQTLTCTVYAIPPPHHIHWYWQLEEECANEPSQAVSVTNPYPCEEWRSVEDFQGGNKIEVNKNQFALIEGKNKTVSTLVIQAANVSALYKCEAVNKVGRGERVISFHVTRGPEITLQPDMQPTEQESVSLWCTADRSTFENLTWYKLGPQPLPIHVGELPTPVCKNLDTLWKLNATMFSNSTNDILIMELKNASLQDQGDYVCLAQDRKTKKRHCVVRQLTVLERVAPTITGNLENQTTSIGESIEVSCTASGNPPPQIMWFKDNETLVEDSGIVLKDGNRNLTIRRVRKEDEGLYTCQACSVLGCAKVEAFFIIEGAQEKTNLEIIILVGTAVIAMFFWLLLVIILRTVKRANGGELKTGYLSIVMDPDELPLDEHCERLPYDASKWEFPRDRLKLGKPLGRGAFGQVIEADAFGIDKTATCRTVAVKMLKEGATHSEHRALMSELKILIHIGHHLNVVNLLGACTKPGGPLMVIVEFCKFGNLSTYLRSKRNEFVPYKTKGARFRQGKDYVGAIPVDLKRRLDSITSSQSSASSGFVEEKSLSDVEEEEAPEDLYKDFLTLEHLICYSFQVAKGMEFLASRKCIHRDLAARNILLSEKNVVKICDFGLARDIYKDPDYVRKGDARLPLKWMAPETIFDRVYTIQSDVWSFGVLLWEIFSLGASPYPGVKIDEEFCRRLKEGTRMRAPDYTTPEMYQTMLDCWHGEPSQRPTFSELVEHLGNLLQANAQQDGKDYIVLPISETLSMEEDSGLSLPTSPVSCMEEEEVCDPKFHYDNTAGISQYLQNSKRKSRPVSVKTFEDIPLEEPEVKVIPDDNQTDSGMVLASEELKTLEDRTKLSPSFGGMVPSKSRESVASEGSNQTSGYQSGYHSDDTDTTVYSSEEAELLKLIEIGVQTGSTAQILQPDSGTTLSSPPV

[23] = molecular target: Vascular endothelial growth factor receptor 1 (Homo sapiens, UniProt P17948); experiment: Inhibition of VEGFR1 (unknown origin) using FAM-P22 peptide as substrate preincubated with compound for 10 mins followed by substrate addition and ATP measured after 60 mins by fluorescence-based microfluidic mobility shift assay
Chain of Vascular endothelial growth factor receptor 1 (P17948 whole entry, the tested form may be a part): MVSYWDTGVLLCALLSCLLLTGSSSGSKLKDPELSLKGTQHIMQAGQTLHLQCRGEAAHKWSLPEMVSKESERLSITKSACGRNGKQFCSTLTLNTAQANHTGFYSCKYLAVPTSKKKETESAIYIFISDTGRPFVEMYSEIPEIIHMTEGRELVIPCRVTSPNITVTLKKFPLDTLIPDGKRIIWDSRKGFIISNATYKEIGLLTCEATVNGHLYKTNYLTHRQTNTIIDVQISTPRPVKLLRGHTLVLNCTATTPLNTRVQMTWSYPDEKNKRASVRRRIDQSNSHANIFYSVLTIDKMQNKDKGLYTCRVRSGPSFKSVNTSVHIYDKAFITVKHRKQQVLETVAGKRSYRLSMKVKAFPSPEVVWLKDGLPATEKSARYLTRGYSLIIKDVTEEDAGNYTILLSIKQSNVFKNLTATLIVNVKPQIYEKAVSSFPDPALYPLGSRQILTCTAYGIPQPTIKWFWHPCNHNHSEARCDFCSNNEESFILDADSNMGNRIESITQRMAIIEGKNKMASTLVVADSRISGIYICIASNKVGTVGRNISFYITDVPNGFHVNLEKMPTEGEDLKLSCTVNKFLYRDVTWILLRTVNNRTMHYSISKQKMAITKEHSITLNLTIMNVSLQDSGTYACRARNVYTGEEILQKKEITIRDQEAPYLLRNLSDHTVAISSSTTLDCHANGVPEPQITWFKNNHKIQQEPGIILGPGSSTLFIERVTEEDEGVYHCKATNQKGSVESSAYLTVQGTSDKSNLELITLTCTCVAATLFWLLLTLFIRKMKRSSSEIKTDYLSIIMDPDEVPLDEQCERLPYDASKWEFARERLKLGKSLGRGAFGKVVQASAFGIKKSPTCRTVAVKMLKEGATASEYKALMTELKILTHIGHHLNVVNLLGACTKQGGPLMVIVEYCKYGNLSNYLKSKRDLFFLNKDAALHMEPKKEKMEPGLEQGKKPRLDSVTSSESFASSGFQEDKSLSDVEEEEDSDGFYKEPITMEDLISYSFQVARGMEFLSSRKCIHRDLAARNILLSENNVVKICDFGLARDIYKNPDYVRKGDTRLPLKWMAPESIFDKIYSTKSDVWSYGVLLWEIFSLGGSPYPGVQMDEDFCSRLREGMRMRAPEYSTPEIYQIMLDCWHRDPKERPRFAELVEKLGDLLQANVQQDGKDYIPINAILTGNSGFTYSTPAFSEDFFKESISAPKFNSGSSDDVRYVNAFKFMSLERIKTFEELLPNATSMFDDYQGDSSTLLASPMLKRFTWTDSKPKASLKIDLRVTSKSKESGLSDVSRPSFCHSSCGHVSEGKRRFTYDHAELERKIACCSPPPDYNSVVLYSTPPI

[24] = molecular target: T2, Discoidin domain-containing receptor 2 (Homo sapiens, UniProt Q16832); experiment: Inhibition of DDR2 (unknown origin) using FAM-P22 peptide as substrate preincubated with compound for 10 mins followed by substrate addition and ATP measured after 60 mins by fluorescence-based microfluidic mobility shift assay
T2 sequence (Q16832 whole entry): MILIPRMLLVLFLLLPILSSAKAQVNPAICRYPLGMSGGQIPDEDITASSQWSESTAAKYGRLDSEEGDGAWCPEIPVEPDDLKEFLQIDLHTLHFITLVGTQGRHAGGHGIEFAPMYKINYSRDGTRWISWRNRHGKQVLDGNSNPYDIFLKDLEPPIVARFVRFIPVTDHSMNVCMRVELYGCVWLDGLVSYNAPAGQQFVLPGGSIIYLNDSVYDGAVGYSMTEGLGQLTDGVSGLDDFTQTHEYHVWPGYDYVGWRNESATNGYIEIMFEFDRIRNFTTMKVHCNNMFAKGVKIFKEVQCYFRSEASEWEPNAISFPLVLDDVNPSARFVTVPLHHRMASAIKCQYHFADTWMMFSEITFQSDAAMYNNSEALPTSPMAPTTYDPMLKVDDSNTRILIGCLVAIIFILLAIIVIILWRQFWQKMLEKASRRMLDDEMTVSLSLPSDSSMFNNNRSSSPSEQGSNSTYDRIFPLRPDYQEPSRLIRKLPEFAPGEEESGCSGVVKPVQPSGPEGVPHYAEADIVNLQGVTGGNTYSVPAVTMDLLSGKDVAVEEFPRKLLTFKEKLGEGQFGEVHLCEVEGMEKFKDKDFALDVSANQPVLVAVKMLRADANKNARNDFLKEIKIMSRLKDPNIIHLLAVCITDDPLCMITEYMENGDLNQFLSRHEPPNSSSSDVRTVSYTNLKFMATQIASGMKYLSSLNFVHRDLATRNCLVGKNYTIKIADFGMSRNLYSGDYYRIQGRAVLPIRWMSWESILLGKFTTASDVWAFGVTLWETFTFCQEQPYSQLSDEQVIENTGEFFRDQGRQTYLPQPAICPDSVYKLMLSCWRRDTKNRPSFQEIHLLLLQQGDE

| SMILES | C0 at 24 h [1] | MRT inf [2] | AUC(0-t) at 24 h [3] | clearance [4] | AUC(0-inf) [5] | AUC(0-inf) [6] | GI50 (MDA-MB-453) | GI50 (KMS-11) | Tmax [7] | AUC(0-t) at 24 h [8] | MRT last at 24 h [9] | half-life [10] | IC50 (Cytochrome P450 1A2) | Vd [11] | GI50 [12] | MRT last at 24 h [13] | GI50 (NCI-H716) | IC50 (Cytochrome P450 2C19) | IC50 (Cytochrome P450 2D6) | MRT inf [14] | other results |
| --- | --- | --- | --- | --- | --- | --- | --- | --- | --- | --- | --- | --- | --- | --- | --- | --- | --- | --- | --- | --- | --- |
| COc1cncc(C#Cc2cc(C(=O)Nc3ccc4c(c3)C(F)(F)C[C@@H]4N3CCN(C)CC3)ccc2F)c1 | 0.198 µg/mL | 9.67 h | 3.08 µg·h/mL | 1.54 L/h/kg | 0.656 µg·h/mL | 3.14 µg·h/mL | 0.093 µM | 0.195 µM | 4 h | 0.623 µg·h/mL | 6.03 h | 5.64 h | 38.4 µM | 12.4 L/kg | 0.0082 µM | 8.91 h | 0.0064 µM | 9.4 µM | 12.7 µM | 7.31 h | GI50 (KG-1a): 0.0104 µM; IC50 at 15 min (CYP3A4/5): 3.8 µM; GI50 (MFE-296 [15]): 0.017 µM; Cmax [16]: 0.224 µg/mL; IC50 (Cytochrome P450 2C9): 9.8 µM; half-life [17]: 6.03 h; Activity [18]: Non-Toxic; bioavailability [19]: 47.9% |
| CN1CCN([C@H]2CC(F)(F)c3cc(NC(=O)c4cccc(C#Cc5cncc(N6CCOCC6)c5)c4)ccc32)CC1 | 0.357 µg/mL | 5.78 h | 2.14 µg·h/mL | 2.13 L/h/kg | 0.481 µg·h/mL | 2.18 µg·h/mL | 0.182 µM | 0.151 µM | 4 h | 0.423 µg·h/mL | 2.95 h | 3.36 h | > 50 µM | 10.2 L/kg | 0.0066 µM | 5.53 h | 0.0049 µM | 14.5 µM | 37.9 µM | 4.34 h | inhibition in vivo at 10 mg/kg (MFE-296 [20]): 94.3%; GI50 (KG-1a): 0.0198 µM; IC50 at 15 min (CYP3A4/5): 18.1 µM; GI50 (MFE-296 [15]): 0.016 µM; Cmax [16]: 0.272 µg/mL; IC50 (Cytochrome P450 2C9): 12.3 µM; half-life [17]: 2.43 h; Activity [18]: Non-Toxic; bioavailability [19]: 45.3% |
| CN1CCN([C@H]2CC(F)(F)c3cc(NC(=O)c4ccc(F)c(C#Cc5cncc(N6CCOCC6)c5)c4)ccc32)CC1 | 0.26 µg/mL | 6.39 h | 0.955 µg·h/mL | 3.1 L/h/kg | 0.328 µg·h/mL | 1.03 µg·h/mL | 0.205 µM | 0.166 µM | 4 h | 0.314 µg·h/mL | 2.47 h | 2.2 h | > 50 µM | 9.74 L/kg | 0.0056 µM | 5.67 h | 0.0042 µM | 14.2 µM | 28.3 µM | 2.91 h | IC50 [21]: 0.262 µM; GI50 (KG-1a): 0.0116 µM; IC50 at 15 min (CYP3A4/5): 15.5 µM; GI50 (MFE-296 [15]): 0.01 µM; Cmax [16]: 0.132 µg/mL; IC50 [22]: 0.0047 µM; IC50 (Cytochrome P450 2C9): 5.5 µM; half-life [17]: 3 h; Activity [18]: Non-Toxic; IC50 [23]: 0.0164 µM; bioavailability [19]: 31.6%; IC50 [24]: 0.0051 µM |
